Laboratory results published in patent US6797726B1, “N-alkoxyalkyl-N,N-dialkylamine derivatives or salts thereof, and remedies for nerve degeneration diseases containing the same” (Toyama Chemical Co., Ltd., priority 1999, dated 2004).
Counter-ions that a name gives are not always drawn.

Columns and labels:
[1] = system: ddY male mice; assay: Anti-hypoxic activity; format: in vivo; settings: 100 mg/kg orally, 30 minutes after administration, gas 4% oxygen / 96% nitrogen at 5 L/minute; for response vs control in vivo at 100 mg/kg: Mus musculus, po, 0.5 h, read-out: Anti-hypoxic activity: (survival time of mouse in administered group)÷(survival time of mouse in control group)×100
Procedure: A test compound (100 mg/kg) dissolved in distilled water is orally administered to ddY male mice of 5-6 weeks age (6-10 heads per group). Thirty minutes after the administration, each mouse was introduced into a glass vessel, and a gas mixture consisting of 4% of oxygen and 96% of nitrogen was passed through the glass vessel at a rate of 5 L/minute. The period of the time from the beginning of sending the gas to the death of the animal was measured.
To the control group, only distilled water was orally given. Anti-hypoxic activity of test compound was calculated according to the following equation:
(Survival time of mouse in administered group)÷(Survival time of mouse in control group)×100(%)

[2] = system: cultured nerve cells death induced by HNE; assay: Activity of inhibiting the HNE-induced nerve cell death (MTT assay); format: cell-based, Wistar rat; settings: 0.1 μM; HNE 25 μmol/L; cultured rat embryo cerebral cortex nerve cells; 24 hours
Excerpt: The protecting effect against the death of cultured nerve cells induced by HNE was examined by a modification of the method described in the Journal of Neuroscience, Vol. 17, Page 5089 (1997).
Cerebral cortex excised from the brain of an embryo of Wistar rat (embryonal age 17-19 days) was cut into small pieces and then treated with trypsin to dissociate the nerve cells. The cells were spread onto a 48-well tissue-culture plate at a rate of 5×10^5 cells per well, and cultured under a condition of 5% carbon dioxide, 37° C., in a Dulbecco modified Eagle medium to which 10% fetal calf serum and 3.6 mg/mL glucose were added.
In order to inhibit the proliferation of glia cells, cytosine arabinoside was added so as to give a final concentration of 10 μmol/L, from the day one after starting the culture. When the culture had been continued for 2 days, the medium was changed to a Dulbecco modified Eagle medium to which 10% fetal calf serum and 3.6 mg/mL glucose were added. When the culture had been continued for 7-8 days, a test agent was added, after which HNE was immediately added so as to give a final concentration of 25 μmol/L.
The inhibitory activity of an agent on the cultured nerve cell death was […] by using the inhibitory activity on the depression of MTT reducing ability as an index. That is, 24 hours after addition of a test agent, MTT assay [Journal of Immunological Methods, Vol. 65, Page 55 (1983)] developed by Mossmann was carried out, based on which inhibitory rate (%) of the agent on the decrease of MTT assay induced by HNE was calculated.
Inhibitory rate=[MTT assay value of (HNE+agent)−added group)−(MTT assay value of HNE−added group)]÷(MTT assay value of no addition group−MTT assay value of HNE−added group)]×100

SMILES	melting point	also measured
CCN(CC)CCCOCCc1ccc2sccc2c1.O=C(O)C(=O)O	87.5 to 89 °C	–
CCN(CCO)CCOCCc1ccc2sccc2c1.O=C(O)C(=O)O	53 to 56 °C	–
CN(CCOCCc1cc2ccsc2cc1F)Cc1ccccc1.O=C(O)C(=O)O	96 to 98 °C	–
CN(CCOCCc1ccc2sccc2c1)Cc1ccc(F)cc1.O=C(O)C(=O)O	149 to 150.5 °C	–
CN(CCO)CCCCCOCCc1ccc2sccc2c1.O=C(O)C(=O)O	78.5 to 80.5 °C	–
CN(C)CCOCCc1cccc2sccc12.Cl	165 to 167 °C	–
CN(CCOCCc1ccc2sccc2c1)Cc1ccccc1.O=C(O)C(=O)O [Example 20, N-[2-(2-benzo[b]thiophen-5-ylethoxy)ethyl]-N-benzyl-N-methylamine oxalate]	–	response vs control in vivo at 100 mg/kg [1]: 155%; Inhibitory rate on the decrease of MTT assay induced by HNE [2]: 69%
CCN(CC)CCOCCc1cc2ccsc2cc1OC.O=C(O)C(=O)O	80 to 83 °C	–
COc1cc2sccc2cc1CCOCCN(C)C [Example 53, N,N-Dimethyl-N-{2-[2-(6-methoxybenzo[b]thiophen-5-yl)ethoxy]ethyl}-amine hydrochloride]	–	response vs control in vivo at 100 mg/kg [1]: 200%
CCN(CC)CCOCCc1ccc2c(c1)OCO2 [Example 25, N-{2-[2-(1,3-benzodioxol-5-yl)ethoxy]ethyl}-N,N-diethylamine]	83 to 84 °C	–
CN(CCO)CCOCCc1cccc2ccsc12.Cl	74 to 76 °C	–
CCN(CC)CCOCCc1ccc2ccccc2c1.O=C(O)C(=O)O	67 to 72 °C	–
CN(C)CCOCCc1ccc2sccc2c1Cl.Cl	92 to 95 °C	–
CCN(CC)CCOCCc1ccc2occc(=O)c2c1.Cl	173 to 176 °C	–
CCN(CC)CCCCCc1ccc2sccc2c1.O=C(O)C(=O)O	58 to 60 °C	–
CN(C)CCN(C)CCOCCc1ccc2sccc2c1.Cl.Cl	228 to 230 °C	–
CCOC(=O)OCCN(C)CCOCCc1ccc2sccc2c1.Cl	73.5 to 76 °C	–
CN(CCO)CCOCCc1ccc2sc(F)cc2c1.O=C(O)C(=O)O	77 to 80 °C	–
CN(C)CCOCCc1cccc2ccsc12.Cl	130 to 132 °C	–
CN(C)CCOCCc1ccc2c(c1)OCO2.O=C(O)C(=O)O	109 to 112 °C	–
CCN(CC)CCOCCc1ccc2occc2c1 [Example 13, N-[2-(2-Benzo[b]furan-5-ylethoxy)ethyl]-N,N-diethylamine oxalate]	–	response vs control in vivo at 100 mg/kg [1]: 160%
CN(CCOCCc1ccc2sccc2c1)C1CC1 [Example 158, N-[2-(2-benzo[b]thiophen-5-ylethoxy)ethyl]-N-cyclopropyl-N-methylamine hydrochloride]	–	response vs control in vivo at 100 mg/kg [1]: 179%

SMILES	melting point	also measured
CCN(CC)CCOCCc1ccc2sc(C)cc2c1.O=C(O)C(=O)O	96 to 98 °C	–
CN(C)CCOCCc1ccc2sc(-c3ccccc3)cc2c1.Cl	170 to 172 °C	–
CCN(CC)CCOCCc1cc2occc2cc1OC.Cl	90 to 92 °C	–
C#CCN(C)CCOCCc1ccc2sccc2c1.Cl [Example 70, N-[2-(2-benzo[b]thiophen-5-ylethoxy)ethyl]-N-methyl-N-(2-pripynyl)amine hydrochloride]	–	Anti-hypoxic activity: (survival time of mouse in administered group)÷(survival time of mouse in control group)×100 [1]: 213%
CN(CCOCCc1ccc2sccc2c1)CCOC(=O)c1ccccc1.Cl	97 to 98 °C	–
CC(O)CN(C)CCOCCc1ccc2sccc2c1 (stereo not shown) [Example 144, 1-{[2-(2-Benzo[b]thiophen-5-ylethoxy)ethyl]-(methyl)amino}-2-propanol oxalate]	–	response vs control in vivo at 100 mg/kg [1]: 250%
CN(C)CCOCCc1cc2ccsc2cc1F.O=C(O)C(=O)O	120 to 126 °C	–
CN(CCO)CCOCCc1cc2ccsc2cc1F.O=C(O)C(=O)O	96 to 99 °C	–
CN(C)CCOCCc1cc2ccsc2cc1Cl.Cl	105 to 108 °C	–
CN(CCOCCc1ccc2sccc2c1)CCOC(=O)C(C)(C)C.Cl	118 to 119 °C	–
C#CCN(CCOCCc1ccc2sccc2c1)Cc1ccccc1.O=C(O)C(=O)O	107 to 108 °C	–
O=C(O)C(=O)O.OCCN(CCOCCc1ccc2sccc2c1)Cc1ccccc1	104 to 105.5 °C	–
CCN(CC)CCOCCc1cccc2sccc12.O=C(O)C(=O)O	79 to 82 °C	–
CCN(CC)CCOCCc1c(F)ccc2ccsc12.Cl	71 to 73.5 °C	–
C#CCN(CC)CCOCCc1ccc2sccc2c1.Cl	115 to 123 °C	–
CCN(CC)CCOCCc1ccc2sc(C(=O)O)cc2c1.Cl	148 to 150 °C	–
CN(C)CCOCCc1ccc(F)c2ccsc12.Cl	67 to 69 °C	–
CN(C)CCOCCc1ccc2sccc2c1F.O=C(O)C(=O)O	118 to 121 °C	–
CN(CCO)CCOCCc1c(F)ccc2ccsc12.Cl	69 to 72 °C	–
CCC(Cc1ccc2sccc2c1)OCCN(CC)CC.Cl (stereo not shown)	84.5 to 87 °C	–
CCN(CC)CCOCCc1cccc2ccsc12.O=C(O)C(=O)O	75 to 76 °C	–
CCCN(CCC)CCOCCc1ccc2sccc2c1.O=C(O)C(=O)O	93 to 98 °C	–

SMILES	melting point	also measured
COc1ccc(CN(C)CCOCCc2ccc3sccc3c2)cc1.O=C(O)C(=O)O	78.5 to 81 °C	–
CN(CCCO)CCOCCc1ccc2sccc2c1.O=C(O)C(=O)O	93 to 95 °C	–
CN(CCOCCc1ccc2sccc2c1)Cc1ccc([N+](=O)[O-])cc1.O=C(O)C(=O)O	112 to 114 °C	–
CCN(CC)CCOCCc1ccc2c(c1)CCC2.Cl [Example 105, N-{2-[2-(2,3-Dihydro-1H-inden-5-yl)ethoxy]ethyl}-N,N-diethylamine hydrochloride]	104 to 105 °C	Inhibitory rate on the decrease of MTT assay induced by HNE [2]: 31%
CCN(CC)CCOCCc1cc2ccsc2cc1F [Example 31, N,N-diethyl-N-{2-[2-(6-fluorobenzo[b]thiophen-5-yl)ethoxy]ethyl}amine oxalate]	–	response vs control in vivo at 100 mg/kg [1]: 248%
Cc1cc2cc(CCOCCN(C)CCO)ccc2s1.O=C(O)C(=O)O	73 to 75 °C	–
CCN(C)CCOCCc1ccc2sccc2c1 [Example 102, N-[2-(2-Benzo[b]thiophen-5-ylethoxy)ethyl]-N-ethyl-N-methylamine oxalate]	–	response vs control in vivo at 100 mg/kg [1]: 210%
CN(C)CCOCCc1cccc2ccccc12.Cl	183 to 184 °C	–
CN(CCO)CCCOCCc1ccc2sccc2c1.O=C(O)C(=O)O [Example 76, 2-{[3-(2-benzo[b]thiophen-5-ylethoxy)propyl]-(methyl)amino}-1-ethanol oxalate]	–	response vs control in vivo at 100 mg/kg [1]: 194%; Inhibitory rate on the decrease of MTT assay induced by HNE [2]: 49%
CCN(CC)CCCCCOCCc1ccc2sccc2c1.Cl	138.5 to 140 °C	–
CCN(CC)CCOCCc1cccc2ccccc12 [Example 49, N,N-diethyl-N-{2-[2-(1-naphthyl)ethoxy]ethyl}-amine oxalate]	–	response vs control in vivo at 100 mg/kg [1]: 173%
CC(C)N(CCOCCc1ccc2sccc2c1)C(C)C.Cl	78 to 79 °C	–
COc1ccc2cc(CCOCCN(C)C)ccc2c1.Cl	125 to 128 °C	–
CCN(CC)CCOCCc1ccc2ncccc2c1.O=C(O)C(=O)O	90 to 92 °C	–
CN(C)CCOCCc1ccc2occc2c1.O=C(O)C(=O)O	101 to 103 °C	–
CCN(CC)CCOCCc1c(F)cc2ccsc2c1F.Cl	98 to 100 °C	–
CN(C)CCOCCc1ccc2ccccc2c1.Cl	105 to 107 °C	–
CCN(CC)CCOCCc1ccc2ccsc2c1 [Example 101, N-[2-(2-Benzo[b]thiophen-6-ylethoxy)ethyl]-N,N-diethylamine oxalate]	–	response vs control in vivo at 100 mg/kg [1]: 187%
CC(CO)N(C)CCOCCc1ccc2sccc2c1.O=C(O)C(=O)O (stereo not shown)	97 to 99 °C	–
CC(COCCc1ccc2sccc2c1)N(C)CCO.O=C(O)C(=O)O (stereo not shown)	72 to 74 °C	–
